Data from patent US12320799B2, “Methods of measuring signaling pathway activity for selection of therapeutic agents” (Celcuity Inc., priority 2017, dated 2025).
Where two headings read alike, the source gives them in different places.

Columns and labels:
EGF pathway = assay: Pathway ultrasensitivity test (EC90/EC10 of activator agent), impedance biosensor; format: cell-based, human; settings: for EC90: read-out: EC90 Concentration
Source text: (§1) Biosensor and transducer: A 96-well impendence E-Plate (ACEA, San Diego, CA) was placed onto an xCELLigence RTCA MP Station impendence biosensor (ACEA, San Diego, CA). The biosensor measured simultaneously the impedance of every well. The change in impedance for a particular well is proportional to the number of cells and type of attachment the cells have with the impedance microplate. Changes in impedance indicate a response to activation of these small cell populations. Coatings: The 96-E-Plate were wells were coated with fibronectin and or collagen. Collagen is purchased from Advanced BioMatrix (Carlsbad, CA) and fibronectin from Sigma-Aldrich (St. Louis, MO). Tissue and cell samples: Five different samples of human cells from breast tumors (R131, R39, R36, R20, R82) and two different samples of human cells from non-small cell lung cancer (NSCLC) tumors were studied (C15 and C23). Any biomarkers that are used to guide selection of targeted therapy are listed in Table 20 for each patient if they were present. Signaling Pathways activator: NRG1, a HER3 agonist, was used to stimulate the HER3 pathway in each of the five breast cancer cell samples. The EC90 and EC10 concentrations of the signaling pathway activator agent were also derived for each breast cancer sample.
(§2) In each of the two NSCLC cell samples, four different activating agents were used to stimulate either the EGF or HER3 pathways. The EC90 and EC10 concentrations of the signaling pathway activator agent were also derived for each NSCLC cell sample.
(§3) Other Reagents: Standard media antibiotics (e.g. penicillin, streptomycin) and other buffers were purchased and used as delivered from ATCC (Manassas, VA, USA) or Life Technologies (Grand Island, NY). Procedure: For each test of a patient cell sample with two different concentrations of signaling pathway activator, six wells were seeded with approximately 15,000 cells in 120 uL culture media. […] The impedance recording of attachment and adhesion change was performed at 37° C., 5% CO2. Data was recorded on a continuous basis throughout the test, where the data presented is from the initial baseline level of cell attachment compared to the subsequent effects following the additions of two concentrations of the signaling pathway activator agent on the 12 different patient samples. Results:
(§4) For each patient cell sample tested, output values were calculated for the signaling pathway activity measured after addition of the two different concentrations of the signaling pathway activator agent. To determine the sensitivity of the signaling pathway to the signaling pathway activator agent, the sensitivity was calculated using the two output values. When the ratio of the EC90 to EC10 is less than 81, the pathway is considered to be ultra-sensitive; otherwise the pathway is considered to be normally sensitive.

HER3 pathway = assay: as above; format: cell-based, human; settings: for EC90: read-out: EC90 Concentration
Source text: as §1, §2, §3, §4

[1] = NSCLC cell sample C15, EGF pathway
[2] = NSCLC cell sample C23, EGF pathway
[3] = NSCLC cell sample C23, HER3 pathway

With Amphiregulin the “Pathway Sensitivity Status (normal or ultra)” value (shortened to “Pathway Sensitivity Status”) (EGF pathway; [1]) was “Ultra (When the ratio of the EC90 to EC10 is less than 81, the pathway is considered to be ultra-sensitive)”, the “Sensitivity Calculation Result (ratio of the EC90 to EC10 of activating agent)” value (EGF pathway; [1]) was 65.65 and the “EC10 Concentration” value (EGF pathway; NSCLC tumor cell sample C15) was 0.0457 nM. For the same substance, the EC90 (EGF pathway; NSCLC tumor cell sample C15) was 3 nM.
In the case of Betacellulin, the “Pathway Sensitivity Status” value (EGF pathway; [1]) is reported as “Ultra (When the ratio of the EC90 to EC10 is less than 81, the pathway is considered to be ultra-sensitive)”, the “Sensitivity Calculation Result (ratio of the EC90 to EC10 of activating agent)” value (EGF pathway; [1]) is reported as 41.67 and the “Pathway Sensitivity Status” value (EGF pathway; [2]) is reported as “Ultra (When the ratio of the EC90 to EC10 is less than 81, the pathway is considered to be ultra-sensitive)”. The “Sensitivity Calculation Result (ratio of the EC90 to EC10 of activating agent)” value (EGF pathway; [2]) was 29.39, the “EC10 Concentration” value (EGF pathway; NSCLC tumor cell sample C15) was 0.0024 nM and the EC90 (EGF pathway; NSCLC tumor cell sample C15) was 0.1 nM. The “EC10 Concentration” value (EGF pathway; NSCLC tumor cell sample C23) was 0.0066 nM and the EC90 (EGF pathway; NSCLC tumor cell sample C23) was 0.194 nM.
For HB-EGF, the “Pathway Sensitivity Status” value (EGF pathway; [1]) was “Ultra (When the ratio of the EC90 to EC10 is less than 81, the pathway is considered to be ultra-sensitive)”, the “Sensitivity Calculation Result (ratio of the EC90 to EC10 of activating agent)” value (EGF pathway; [1]) was 63.75 and the “Pathway Sensitivity Status” value (EGF pathway; [2]) was “Ultra (When the ratio of the EC90 to EC10 is less than 81, the pathway is considered to be ultra-sensitive)”. For the same substance, the “Sensitivity Calculation Result (ratio of the EC90 to EC10 of activating agent)” value (EGF pathway; [2]) was 66.67, the “EC10 Concentration” value (EGF pathway; NSCLC tumor cell sample C15) was 0.0016 nM and the EC90 (EGF pathway; NSCLC tumor cell sample C15) was 0.102 nM. The “EC10 Concentration” value (EGF pathway; NSCLC tumor cell sample C23) was 0.003 nM and the EC90 (EGF pathway; NSCLC tumor cell sample C23) was 0.2 nM.
For NRG1, the “Pathway Sensitivity Status” value (HER3 pathway; [3]) was “Ultra (When the ratio of the EC90 to EC10 is less than 81, the pathway is considered to be ultra-sensitive)”, the “Sensitivity Calculation Result (ratio of the EC90 to EC10 of activating agent)” value (HER3 pathway; [3]) was 11.19 and the “EC10 Concentration” value (HER3 pathway; NSCLC tumor cell sample C23) was 0.399 nM. For the same substance, the EC90 (HER3 pathway; NSCLC tumor cell sample C23) was 4.46 nM, the “EC10 Concentration” value (HER3 pathway; breast tumor cell sample R20) was 0.236 nM and the “Pathway Sensitivity Status” value (HER3 pathway; breast tumor cell sample R20) was “Ultra (When the ratio of the EC90 to EC10 is less than 81, the pathway is considered to be ultra-sensitive)”. For the same substance, the “Sensitivity Calculation Result (EC90/EC10 ratio)” value (HER3 pathway; breast tumor cell sample R20) was 18.44, the EC90 (HER3 pathway; breast tumor cell sample R20) was 2.14 nM and the “EC10 Concentration” value (HER3 pathway; breast tumor cell sample R36) was 0.215 nM. For the same substance, the “Pathway Sensitivity Status” value (HER3 pathway; breast tumor cell sample R36) was “Ultra (When the ratio of the EC90 to EC10 is less than 81, the pathway is considered to be ultra-sensitive)”, the “Sensitivity Calculation Result (EC90/EC10 ratio)” value (HER3 pathway; breast tumor cell sample R36) was 27.61 and the EC90 (HER3 pathway; breast tumor cell sample R36) was 1.96 nM. For the same substance, the “EC10 Concentration” value (HER3 pathway; breast tumor cell sample R39) was 0.173 nM, the “Pathway Sensitivity Status” value (HER3 pathway; breast tumor cell sample R39) was “Ultra (When the ratio of the EC90 to EC10 is less than 81, the pathway is considered to be ultra-sensitive)” and the “Sensitivity Calculation Result (EC90/EC10 ratio)” value (HER3 pathway; breast tumor cell sample R39) was 45.96. The EC90 (HER3 pathway; breast tumor cell sample R39) was 1.6 nM, the “EC10 Concentration” value (HER3 pathway; breast tumor cell sample R82) was 0.193 nM and the “Pathway Sensitivity Status” value (HER3 pathway; breast tumor cell sample R82) was “Normal (otherwise the pathway is considered to be normally sensitive)”. The “Sensitivity Calculation Result (EC90/EC10 ratio)” value (HER3 pathway; breast tumor cell sample R82) was 95.1, the EC90 (HER3 pathway; breast tumor cell sample R82) was 1.79 nM and the “EC10 Concentration” value (HER3 pathway; breast tumor cell sample R131) was 0.133 nM. The “Pathway Sensitivity Status” value (HER3 pathway; breast tumor cell sample R131) was “Ultra (When the ratio of the EC90 to EC10 is less than 81, the pathway is considered to be ultra-sensitive)”, the “Sensitivity Calculation Result (EC90/EC10 ratio)” value (HER3 pathway; breast tumor cell sample R131) was 38.32 and the EC90 (HER3 pathway; breast tumor cell sample R131) was 1.23 nM.
With TGF alpha the “Pathway Sensitivity Status” value (EGF pathway; [1]) was “Ultra (When the ratio of the EC90 to EC10 is less than 81, the pathway is considered to be ultra-sensitive)”, the “Sensitivity Calculation Result (ratio of the EC90 to EC10 of activating agent)” value (EGF pathway; [1]) was 44.15 and the “Pathway Sensitivity Status” value (EGF pathway; [2]) was “Ultra (When the ratio of the EC90 to EC10 is less than 81, the pathway is considered to be ultra-sensitive)”. The “Sensitivity Calculation Result (ratio of the EC90 to EC10 of activating agent)” value (EGF pathway; [2]) was 21.25, the “EC10 Concentration” value (EGF pathway; NSCLC tumor cell sample C15) was 0.0082 nM and the EC90 (EGF pathway; NSCLC tumor cell sample C15) was 0.362 nM. For the same substance, the “EC10 Concentration” value (EGF pathway; NSCLC tumor cell sample C23) was 0.0088 nM and the EC90 (EGF pathway; NSCLC tumor cell sample C23) was 0.187 nM.
